Assay results reported in patent US11396531B2, “Antimicrobial peptides comprising epsilon lysine residues” (priority 2016, dated 2022).
In brackets after ≈: the same amount, converted by molar mass. Like-named read-outs stand apart in the source and are kept apart here. No end group written: not given here.

Tests used:
[1] = tested on: E. coli; assay: microbe, parasite or virus in culture; type: cell-based, Escherichia coli
Procedure: (§1) MIC of cationic polymers and polypeptide were tested in accordance with the Clinical and Laboratory Standards Institute (CLSI) guidelines against a panel of antibiotic-susceptible/-resistant bacteria, yeasts and fungal strains. Bacterial and yeast strains were cultured on tryptic soy agar (TSA) and Sabaroud dextrose agar (SDA) plates (Neogen Corporation, MI, USA) overnight respectively. Inocula in Mueller-Hinton broth (MHB) for bacteria and SD broth for C. albicans (Beckton Dickinson, MD, USA) were prepared at 0.5 McFarland. The suspensions were then diluted to a final concentration of 10^5 CFU/ml in a 96-well microtitre plate (SPL Life Sciences Co., Ltd, Korea). Polymers and polypeptides were added to the inoculum in 2-fold serial dilutions to give a range of concentrations from 2-1024 μg/ml. […] The antimicrobial activities were compared with topical antiseptic agents, BAK and CHX. A similar protocol was used to determine the MIC of εPL against antibiotic-resistant pathogens. MIC of the polymers and polypeptides against Fusarium strains was determined in full strength RPMI-1640 buffer. Fungal spores were recovered from a 5-day old culture on a potato dextrose agar and diluted to a concentration of 10^5 spores/ml in 0.9% saline solution. A further 50-fold dilution was done in RPMI-1640 buffer and 100 μl of the inoculum was added to 96 well plates containing an equal volume of test peptides at 2-fold serial dilutions. 200 μl of inoculum without any additives and buffer alone served as positive and negative controls, respectively. The plate was then incubated at 30° C. for 48 h. The absorbance value was measured at 600 nm as before and the lowest concentration of the peptide which inhibited 90% growth was reported. All MIC determinations were performed in duplicates.
(§2) MICs of polymers/antibiotics were determined using the microdilution method in 96 well microtitre plates (SPL Life Sciences Co., Ltd, Korea), following the guidelines of Clinical and Laboratory Standards Institute (CLSI) document M100-S18. Briefly, polymers (1-512 μg/ml) or antibiotics were dissolved in appropriate media (Mueller Hinton broth, MHB for bacteria; Sabaroud's Dextrose (SD) broth for yeasts and RPMI buffer for Fusarium strains) and 100 μl of this was then mixed with an equal volume of microbial inoculum (OD600=˜0.08) in the same media and shaken in a closed incubator.

[2] = tested on: Carbapenam-resistant Enterobacter strains (CRE); assay: microbe, parasite or virus in culture
Procedure: as §1, with “Korea).” for “Korea). Polymers and polypeptides were added to the inoculum in 2-fold serial dilutions to give a range of concentrations from 2-1024 μg/ml.”
as §2

[3] = tested on: E. cloacae complex; assay: microbe, parasite or virus in culture
Procedure: as §1, with “Korea).” for “Korea). Polymers and polypeptides were added to the inoculum in 2-fold serial dilutions to give a range of concentrations from 2-1024 μg/ml.”
as §2

[4] = tested on: A. baumannii; assay: microbe, parasite or virus in culture
Procedure: as §1, with “Korea).” for “Korea). Polymers and polypeptides were added to the inoculum in 2-fold serial dilutions to give a range of concentrations from 2-1024 μg/ml.”
as §2

[5] = tested on: S. aureus; assay: microbe, parasite or virus in culture; type: cell-based, Staphylococcus aureus
Procedure: as §1, §2

[6] = tested on: P. aeruginosa; type: cell-based, Pseudomonas aeruginosa; conditions: P. aeruginosa (n = 22)
Procedure: as §1
MICs of polymers/antibiotics were determined using the microdilution method in 96 well microtitre plates (SPL Life Sciences Co., Ltd, Korea), following the guidelines of Clinical and Laboratory Standards Institute (CLSI) document M100-S18. […]

[7] = tested on: MRSA; type: cell-based, Staphylococcus aureus; conditions: MRSA (n = 9)
Procedure: as §1, §2

[8] = tested on: T-cell lymphomas (HuT78, MJ, HH) and B-cell lymphomas (Ly-4 and Ly-18); assay: Anticancer properties of hypercharged peptides (MTS); type: cell-based, human; conditions: 62.5-500 μg/ml
Procedure: The hyper-charged peptides were screened for their anticancer properties using cell lines derived from patients with various forms of cutaneous lymphomas, including T-cell lymphomas (HuT78, MJ, HH) and B-cell lymphomas (Ly-4 and Ly-18). The relative cytotoxicity of these peptides was also assessed in healthy primary peripheral blood lymphocyte (PBL) T-cells. Cytotoxicity was measured as the mitochondrial function by metabolic reduction of MTS.

[9] = tested on: Vancomycin-resistant Enterococcus (VRE)
Procedure: as §1, with “Korea).” for “Korea). Polymers and polypeptides were added to the inoculum in 2-fold serial dilutions to give a range of concentrations from 2-1024 μg/ml.”
as §2

[10] = tested on: C. albicans; conditions: C. albicans (n = 5)
Procedure: as §1, with “Korea).” for “Korea). Polymers and polypeptides were added to the inoculum in 2-fold serial dilutions to give a range of concentrations from 2-1024 μg/ml.”
as §2

[11] = tested on: K. pneumoniae; assay: microbe, parasite or virus in culture; type: cell-based, Klebsiella pneumoniae
Procedure: as §1, §2

[12] = tested on: primary human dermal fibroblasts (HDFs); assay: MTS cytotoxicity assay
Procedure: MTS ((3-(4,5-dimethylthiazol-2-yl)-5-(3-carboxymethoxyphenyl)-2-(4-sulfophenyl)-2H-tetrazolium)) assay and high content analysis (HCA) were performed to elucidate the effect of various polymers on metabolic activity and morphological parameters of cultured human dermal fibroblasts (hDF), respectively as described previously. The antineoplastic agent, nocodazole (5 μg/ml), served as the […] control whereas cells treated with PBS served as positive control. The average values from three independent triplicate experiments are reported. Cells were cultured in 96-well plates and scanned (16 randomly selected fields/well) using an automated microscope IN Cell Analyzer 2200 (GE Healthcare). The multi-parametric cytotoxicity bio-application module of the IN Cell Investigator software (GE Healthcare) was used in quantitative estimations and morphotypic analysis of acquired images, which were automatically converted into color-coded heatmaps using Spotrfire® software.
Human dermal fibroblast cells were seeded in 96-well plates (2×10^3 cells/well) and incubated for 24 h at 37° C. and 5% CO2. Cells were then treated with various concentrations of polymers or peptides (62.5 μg/ml-1 mg/ml. At the end of the treatment period (after 24 h), 20 or 50 μl of MTS tetrazolium solution was added into 96-well or 12-well plates and further incubated for 2 h at 37° C. Subsequently, the absorbance was measured at 490 nm using a microplate reader (Infinite M200 Pro, Tecan, Switzerland) and the relative cell viability was calculated. Each treatment was performed in two triplicates and reported.
The cytotoxicity of peptides and polymers were determined using CellTier 96® Aqueous One solution cell proliferation assay kit according to the manufacturer's instruction (Promega Corporation, Madison, Wis.). This assay evaluates mitochondrial function by measuring ability of viable cells to reduce MTS ((3-(4,5-dimethylthiazol-2-yl)-5-(3-carboxymethoxyphenyl)-2-(4-sulfophenyl)-2H-tetrazolium)) into a quantifiable […] formazan product. HDFs were seeded in 96-well plates (2×10^3 cells/well) and incubated for 24 h at 37° C. and 5% CO2. Cells were then treated with a concentrated stock solution of polymers (final concentration 62.5-2000 μg/ml in the well) or peptides (final concentration 4-1000 μg/ml in the well). After 24 h, 20 μl of MTS tetrazolium solution was added into 96-well well plates and further incubated for 2 h at 37° C. Subsequently, the absorbance was measured at 490 nm using a microplate reader (Infinite M200 Pro, Tecan, Switzerland) and the relative cell viability was calculated relative to untreated control (10 mM PBS, pH 7.0). Each treatment was performed in two triplicates and reported.

[13] = tested on: red blood cells; conditions: cited from earlier work
[14] = tested on: a number of micro-organisms; conditions: cited from earlier work
[15] = at 5 × 10^5 CFU/mL, reference 7
[16] = at 5 × 10^5 CFU/mL, reference 5

With `N=C(N)NCCC[C@@H](NC(=O)[C@@H](N)CCCCNC(=O)[C@@H](CCCNC(=N)N)NC(=O)[C@@H](N)CCCCNC(=O)[C@@H](CCCNC(=N)N)NC(=O)[C@@H](N)CCCCNC(=O)[C@@H](CCCNC(=N)N)NC(=O)[C@@H](N)CCCCNC(=O)[C@@H](CCCNC(=N)N)NC(=O)[C@@H](N)CCCCNC(=O)[C@@H](CCCNC(=N)N)NC(=O)[C@@H](N)CCCCN)C(=O)O` [HC4, KrKrKrKrKrKr] the MIC ([1]; E. coli (n = 3)) was 16 µg/mL (≈ 9.28 µM), the MIC ([2]; CRE strains (n = 4)) was 64 to 128 µg/mL and the MIC ([3]; E. clocae complex (n = 4)) was 64 to 128 µg/mL. It also gave an MIC ([4]; A. baumanii (n = 3)) of 16 to 32 µg/mL, an MIC ([5]; S. aureus (n = 6)) of 32 µg/mL (≈ 18.6 µM) and an MIC [6] of 16 to 64 µg/mL. The MIC [7] was 16 to 64 µg/mL, the “cell killing in lymphoma cell lines” value [8] was “varying degrees of cell killing” and the MIC ([9]; VRE (n = 3)) was 16 µg/mL (≈ 9.28 µM). For the same molecule, the MIC [10] was 16 to 32 µg/mL and the MIC ([11]; K. pneumonia (n = 4)) was 16 to 128 µg/mL.

In the case of `CC[C@H](C)[C@H](NC(=O)[C@H](CO)NC(=O)[C@H](CCCCN)NC(=O)[C@H](CC(C)C)NC(=O)[C@H](CCCCN)NC(=O)[C@@H](N)CC(C)C)C(=O)N[C@H](C(=O)N[C@@H](CO)C(=O)N[C@@H](Cc1c[nH]c2ccccc12)C(=O)N[C@@H](C)C(=O)N[C@@H](CCCCN)C(=O)N[C@@H](CCCCN)C(=O)N[C@H](C(=O)N[C@@H](CC(C)C)C(N)=O)C(C)C)C(C)C` [Mastoparan B, LKLKSIVSWAKKVL], the MIC50 ([2]; CRE (n = 19), 50% of strains susceptible, Table 7) is reported as “(MIC50 = 4) μg/ml”, the MIC90 ([4]; A. baumanii (n = 10), 90% of strains susceptible, Table 7) is reported as “(MIC90 = 2) μg/ml” and the “Peptide concentration required to impart cytotoxic effect” value ([12]; MTS assay, primary human fibroblasts) is reported as “exceeded 62.5 μg/ml”. The “Cytotoxicity for HDFs” value ([12]; Table 7) was 125 µg/mL and the MIC90 ([9]; VRE (n = 21), 90% of strains susceptible, Table 7) was “(MIC90 = 4)^1 μg/ml”.

With `NC[C@H]1O[C@H](O[C@H]2[C@H](O)[C@@H](O[C@H]3O[C@H](CO)[C@@H](O)[C@H](N)[C@H]3O)[C@H](N)C[C@@H]2N)[C@H](N)C[C@@H]1O` [Tobramycin] the MIC ([1]; Escherichia coli, E. coli (n = 8), range over strains, read-out: MIC) was 195 to 100000 µg/mL (≈ 417 to 214000 µM), the MIC ([2]; Enterobacter) was 800 to 50000 µg/mL (≈ 1710 to 107000 µM) and the MIC ([3]; Enterobacter cloacae) was 1560 to 100000 µg/mL (≈ 3340 to 214000 µM). For the same molecule, the MIC ([4]; Acinetobacter baumannii) was 800 to 50000 µg/mL (≈ 1710 to 107000 µM), the MIC ([5]; Staphylococcus aureus, S. aureus (n = 9), read-out: MIC) was 500 to 1000 µg/mL (≈ 1070 to 2140 µM) and the MIC ([11]; Klebsiella pneumoniae, K. pneumoniae (n = 8), range over strains, read-out: MIC) was 195 to 100000 µg/mL (≈ 417 to 214000 µM).

In the case of “CGIGAVLKVLTTGLPALISWIKRKRQQC [Modified peptide: CGIGAVLKVLTTGLPALISWIKRKRQQC (cyclised)] (also: cyclised, mode not given here)”, the Haemolytic activity ([13]; at 10 μM, reference 7) is given as ~50% at 10 μM and the “MIC (range against a number of micro-organisms)” value [14, 15] is given as 0.8 - 10 μM at.

In the case of “CGIGAVLKVLTTGLPALISWIKRKRQQC [Unmodified parent peptide: CGIGAVLKVLTTGLPALISWIKRKRQQC (lin]”, the Haemolytic activity ([13]; at 10 μM, reference 7) is given as “Complete” and the “MIC (range against a number of micro-organisms)” value [14, 15] is given as 2 - 32 μM at.

For “GIGAVKKVLTTGKPALISWKKRKRQQ (not fully specified (residues 6, 13, 20); ends and bridges not checked; also: peptoid residue at 6, 13, 20 (identity not given here))”, the Haemolytic activity ([13]; at 100 μM, reference 6) is listed as <10% at 100 μM and the “MIC (range against a number of micro-organisms)” value ([14]; at 1 × 10^6 CFU/mL, reference 6) is listed as 2 - 8 μM at.

For “GIGAVLKVLTTGLCALISWIKRKRQQ (ends and bridges not checked)”, the Haemolytic activity ([13]; at 2.5 μM, reference 8) is listed as 50% at 2.5 μM.

For “GIGAVLKVLTTGLPALISWIKRKRQQ [listing 1 of 2 here]”, the Haemolytic activity ([13]; at 2 μM, reference 4) is listed as 100% at 2 μM and the “MIC (range against a number of micro-organisms)” value ([14]; at 1 - 4 × 10^5 CFU/mL, reference 4) is listed as 0.1 - 2 μM at 1 -.

For “GIGAVLKVLTTGLPALISWIKRKRQQ [listing 2 of 2 here]”, the Haemolytic activity ([13]; reference 9, result in words) is given as “Loss of peptide” and the MIC ([14]; reference 9, result in words) is given as “Loss of peptide”.

For “GIGAVLKVLTTGLPALISWIKRKRQQ-NH2 [Modified peptide: GIGAVLKVLTTGLPALISWIKRKRQQ-NH2]”, the Haemolytic activity ([13]; at 50 μM, reference 5) is given as <25% at 50 μM and the “MIC (range against a number of micro-organisms)” value [14, 16] is given as 0.8 - 12 μM at.

In the case of “GIGAVLKVLTTGLPALISWIKRKRQQ-NH2 [Unmodified parent peptide: GIGAVLKVLTTGLPALISWIKRKRQQ-NH2]”, the Haemolytic activity ([13]; at <10 μM, reference 5) is given as 100% at <10 μM and the “MIC (range against a number of micro-organisms)” value [14, 16] is given as 0.3 - 20 μM at.
